Patent publication US9723840B2 (SYNGENTA PARTICIPATIONS AG, priority 2013, dated 2017)

Tests used:
Assay type in all cases: in vivo
[1] = test system: Setaria faberi; experiment: Post-emergence herbicidal activity, SETFA; set-up: key: 5=total damage to plant; 0=no damage to plant; conditions: 1000 g/Ha, post-emergence spray (8 days cultivation), evaluated after 13 days, scale 0-5
Method: (§1) Seeds of a variety of test species were sown in standard soil in pots. After 8 days cultivation (post-emergence) under controlled conditions in a glasshouse (at 24/16° C., day/night; 14 hours light; 65% humidity), the plants were sprayed with an aqueous spray solution derived from the formulation of the technical active ingredient in acetone/water (50:50) solution containing 0.5% Tween 20 (polyoxyethelyene sorbitan monolaurate, CAS RN 9005-64-5). The test plants were then grown in a glasshouse under controlled conditions (at 24/16° C., day/night; 14 hours light; 65% humidity) and watered twice daily. After 13 days, the test was evaluated (5=total damage to plant; 0=no damage to plant).

[2] = test system: Abutilon theophrasti; experiment: Post-emergence herbicidal activity, ABUTH; set-up: key: 5=total damage to plant; 0=no damage to plant; conditions: 1000 g/Ha, post-emergence spray (8 days cultivation), evaluated after 13 days, scale 0-5
Method: as §1

[3] = test system: Setaria faberi; experiment: Pre-emergence herbicidal activity, SETFA; set-up: key: 5=total damage to plant; 0=no damage to plant; conditions: 1000 g/Ha, pre-emergence spray, evaluated after 13 days, scale 0-5
Method: as §1, with “After” for “After 8 days”, “for one day (pre-emergence)” for “(post-emergence)”

[4] = test system: Echinochloa crus-galli; experiment: Pre-emergence herbicidal activity, ECHCG; set-up: key: 5=total damage to plant; 0=no damage to plant; conditions: 1000 g/Ha, pre-emergence spray, evaluated after 13 days, scale 0-5
Method: as §1, with “After” for “After 8 days”, “for one day (pre-emergence)” for “(post-emergence)”

[5] = test system: Zea mays; experiment: Pre-emergence herbicidal activity, ZEAMX; conditions: 1000 g/Ha, pre-emergence spray, evaluated after 13 days, scale 0-5
Method: as §1, with “After” for “After 8 days”, “for one day (pre-emergence)” for “(post-emergence)”

[6] = test system: Abutilon theophrasti; experiment: Pre-emergence herbicidal activity, ABUTH; set-up: key: 5=total damage to plant; 0=no damage to plant; conditions: 1000 g/Ha, pre-emergence spray, evaluated after 13 days, scale 0-5
Method: as §1, with “After” for “After 8 days”, “for one day (pre-emergence)” for “(post-emergence)”

[7] = test system: Alopecurus myosuroides; experiment: Pre-emergence herbicidal activity, ALOMY; conditions: 1000 g/Ha, pre-emergence spray, evaluated after 13 days, scale 0-5
Method: as §1, with “After” for “After 8 days”, “for one day (pre-emergence)” for “(post-emergence)”

[8] = test system: Amaranthus retroflexus; experiment: Post-emergence herbicidal activity, AMARE; set-up: key: 5=total damage to plant; 0=no damage to plant; conditions: 1000 g/Ha, post-emergence spray (8 days cultivation), evaluated after 13 days, scale 0-5
Method: as §1

[9] = test system: Zea mays; experiment: Post-emergence herbicidal activity, ZEAMX; set-up: key: 5=total damage to plant; 0=no damage to plant; conditions: 1000 g/Ha, post-emergence spray (8 days cultivation), evaluated after 13 days, scale 0-5
Method: as §1

[10] = test system: Alopecurus myosuroides; experiment: Post-emergence herbicidal activity, ALOMY; set-up: key: 5=total damage to plant; 0=no damage to plant; conditions: 1000 g/Ha, post-emergence spray (8 days cultivation), evaluated after 13 days, scale 0-5
Method: as §1

[11] = test system: Amaranthus retroflexus; experiment: Pre-emergence herbicidal activity, AMARE; set-up: key: 5=total damage to plant; 0=no damage to plant; conditions: 1000 g/Ha, pre-emergence spray, evaluated after 13 days, scale 0-5
Method: as §1, with “After” for “After 8 days”, “for one day (pre-emergence)” for “(post-emergence)”

[12] = test system: Echinochloa crus-galli; experiment: Post-emergence herbicidal activity, ECHCG; set-up: key: 5=total damage to plant; 0=no damage to plant; conditions: 1000 g/Ha, post-emergence spray (8 days cultivation), evaluated after 13 days, scale 0-5
Method: as §1

Row | Compound | SETFA damage score, application post-emergence [1] | ABUTH damage score, application post-emergence [2] | SETFA damage score, application pre-emergence [3] | ECHCG damage score, application pre-emergence [4] | ZEAMX damage score, application pre-emergence [5] | ABUTH damage score, application pre-emergence [6] | ALOMY damage score, application pre-emergence [7] | AMARE damage score, application post-emergence [8] | ZEAMX damage score, application post-emergence [9] | ALOMY damage score, application post-emergence [10] | AMARE damage score, application pre-emergence [11] | ECHCG damage score, application post-emergence [12]
1 | CN1CC(O)N(c2cc(C(F)(F)F)c(Cl)nn2)C1=O (stereo not drawn) [Example A5, 3-[6-chloro-5-(trifluoromethyl)pyridazin-3-yl]-4-hydroxy-1-methyl-imidazolidin-2-one] | 5 | 5 | 5 | 4 | 2 | 5 | 4 | 5 | 4 | 4 | 5 | 5
2 | CC1C(O)N(c2ccc(C(=O)NC(C)(C)C#N)nn2)C(=O)N1C (stereo not drawn) [Example A13] | 5 | 5 | 4 | 4 | 3 | 5 | 4 | 5 | 1 | 4 | 5 | 3
3 | CCOC1C(O)N(c2cc(C(C)(C)F)c(Cl)nn2)C(=O)N1C (stereo not drawn) [Example A9, 1-[6-chloro-5-(1-fluoro-1-methyl-ethyl)pyridazin-3-yl]-4-ethoxy-5-hydroxy-3-methyl-imidazolidin-2-one] | 5 | 5 | 5 | 5 | 3 | 5 | 4 | 5 | 5 | 5 | 5 | 5
4 | CON1C(=O)N(c2cc(C(C)(C)F)c(Cl)nn2)C(O)C1C (stereo not drawn) [Example A6, 1-[6-chloro-5-(1-fluoro-1-methyl-ethyl)pyridazin-3-yl]-5-hydroxy-3-methoxy-4-methyl-imidazolidin-2-one] | 5 | 5 | 4 | 4 | 3 | 5 | 3 | 5 | 5 | 4 | 5 | 5
5 | CN1CC(O)N(c2cc(C(F)(F)F)cnn2)C1=O (stereo not drawn) [Example A7, 4-hydroxy-1-methyl-3-[5-(trifluoromethyl)pyridazin-3-yl]imidazolidin-2-one] | 5 | 5 | 5 | 5 | 2 | 5 | 4 | 5 | 5 | 5 | 5 | 5
6 | CCOC1C(O)N(c2cc(C(C)(F)F)c(Cl)nn2)C(=O)N1C (stereo not drawn) [Example A10] | 5 | 5 | 5 | 4 | 4 | 5 | 4 | 5 | 4 | 5 | 5 | 5
7 | CC1C(O)N(c2cc(C(C)(C)F)c(Cl)nn2)C(=O)N1C (stereo not drawn) [Example A2, 1-[6-chloro-5-(1-fluoro-1-methyl-ethyl)pyridazin-3-yl]-5-hydroxy-3,4-dimethyl-imidazolidin-2-one] | 5 | 5 | 5 | 4 | 3 | 5 | 4 | 5 | 5 | 4 | 5 | 5
8 | CON1C(=O)N(c2cc(C(C)(F)F)c(Cl)nn2)C(O)C1C (stereo not drawn) [Example A12] | 5 | 5 | 5 | 5 | 3 | 5 | 3 | 5 | 3 | 5 | 5 | 5
